ChEMBL document CHEMBL1155271, “Synthesis, crystal structures and antibacterial activity studies of aza-derivatives of phytoalexin from cotton plant--gossypol” (2009)
In brackets after ≈: the same amount, converted by molar mass. Activity calls are given as the source filed them. The rule behind the calls is not given here.

How the values were obtained:
[1] = test system: Staphylococcus aureus; experiment: Antimicrobial activity against methicillin-resistant Staphylococcus aureus 136/6 by twofold dilution technique; assay type: functional
[2] = test system: Staphylococcus aureus; experiment: Antimicrobial activity against methicillin-resistant Staphylococcus aureus 146/6 by twofold dilution technique; assay type: functional
[3] = test system: Staphylococcus aureus; experiment: microbe, parasite or virus in culture; settings: ATCC 6538, 18 h, read-out: DIZ
Description: Antimicrobial activity against Staphylococcus aureus ATCC 6538 at 5 ug after 18 hrs by disk diffusion method

[4] = test system: Staphylococcus epidermidis; experiment: microbe, parasite or virus in culture; settings: ATCC 12228, 18 h, read-out: DIZ
Description: Antimicrobial activity against Staphylococcus epidermidis ATCC 12228 at 5 ug after 18 hrs by disk diffusion method

[5] = test system: Staphylococcus aureus; experiment: Antimicrobial activity against methicillin-resistant Staphylococcus aureus 140/6 by twofold dilution technique; assay type: functional
[6] = test system: Staphylococcus aureus; experiment: Antimicrobial activity against Methicillin susceptible Staphylococcus aureus 237/7 by twofold dilution technique; assay type: functional
[7] = test system: Staphylococcus aureus; experiment: Antimicrobial activity against Methicillin susceptible Staphylococcus aureus 206/7 by twofold dilution technique; assay type: functional
[8] = test system: Staphylococcus aureus; experiment: Antimicrobial activity against Staphylococcus aureus NCTC 4163 after 18 hrs by twofold dilution technique; assay type: functional; settings: NCTC 4163, 18 h
[9] = test system: Enterococcus hirae; experiment: Antimicrobial activity against Enterococcus hirae ATCC 10541 after 18 hrs by twofold dilution technique; assay type: functional; settings: ATCC 10541, 18 h
[10] = test system: Staphylococcus aureus; experiment: Antimicrobial activity against Methicillin susceptible Staphylococcus aureus 243/7 by twofold dilution technique; assay type: functional
[11] = test system: Staphylococcus aureus; experiment: Antimicrobial activity against Methicillin susceptible Staphylococcus aureus 208/7 by twofold dilution technique; assay type: functional
[12] = test system: Staphylococcus aureus; experiment: Antimicrobial activity against methicillin-resistant Staphylococcus aureus 200/7 by twofold dilution technique; assay type: functional
[13] = test system: Staphylococcus aureus; experiment: Antimicrobial activity against Methicillin susceptible Staphylococcus aureus 207/7 by twofold dilution technique; assay type: functional
[14] = test system: Micrococcus luteus; experiment: Antimicrobial activity against Micrococcus luteus ATCC 10240 at 5 ug after 18 hrs by disk diffusion method; assay type: functional; settings: ATCC 10240, 18 h, read-out: DIZ
[15] = test system: Staphylococcus aureus; experiment: microbe, parasite or virus in culture; settings: ATCC 25923, 18 h, read-out: DIZ
Description: Antimicrobial activity against Staphylococcus aureus ATCC 25923 at 5 ug after 18 hrs by disk diffusion method

[16] = test system: Staphylococcus aureus; experiment: Antimicrobial activity against methicillin-resistant Staphylococcus aureus 143/6 by twofold dilution technique; assay type: functional
[17] = test system: Bacillus subtilis; experiment: microbe, parasite or virus in culture; settings: ATCC 6633, 18 h, read-out: DIZ
Description: Antimicrobial activity against Bacillus subtilis ATCC 6633 at 5 ug after 18 hrs by disk diffusion method

[18] = test system: Staphylococcus aureus; experiment: Antimicrobial activity against methicillin-resistant Staphylococcus aureus 217/7 by twofold dilution technique; assay type: functional
[19] = test system: Staphylococcus epidermidis; experiment: Antimicrobial activity against Staphylococcus epidermidis ATCC 12228 by twofold dilution technique; assay type: functional
[20] = test system: Staphylococcus aureus; experiment: Antimicrobial activity against methicillin-resistant Staphylococcus aureus 144/6 by twofold dilution technique; assay type: functional
[21] = test system: Staphylococcus aureus; experiment: Antimicrobial activity against Staphylococcus aureus ATCC 6538 after 18 hrs by twofold dilution technique; assay type: functional; settings: ATCC 6538, 18 h
[22] = test system: Staphylococcus aureus; experiment: Antimicrobial activity against methicillin-resistant Staphylococcus aureus 236/7 by twofold dilution technique; assay type: functional
[23] = test system: Staphylococcus aureus; experiment: Antimicrobial activity against Methicillin susceptible Staphylococcus aureus 242/7 by twofold dilution technique; assay type: functional
[24] = test system: Bacillus subtilis; experiment: Antimicrobial activity against Bacillus subtilis ATCC 6633 after 18 hrs by twofold dilution technique; assay type: functional; settings: ATCC 6633, 18 h
[25] = test system: Micrococcus luteus; experiment: Antimicrobial activity against Micrococcus luteus ATCC 10240 by twofold dilution technique; assay type: functional
[26] = test system: Staphylococcus aureus; experiment: Antimicrobial activity against methicillin-resistant Staphylococcus aureus 141/6 by twofold dilution technique; assay type: functional
[27] = test system: Micrococcus luteus; experiment: Antimicrobial activity against Micrococcus luteus ATCC 9341 at 5 ug after 18 hrs by disk diffusion method; assay type: functional; settings: ATCC 9341, 18 h, read-out: DIZ
[28] = test system: Enterococcus hirae; experiment: Antimicrobial activity against Enterococcus hirae ATCC 10541 at 5 ug after 18 hrs by disk diffusion method; assay type: functional, organism-based
[29] = test system: Staphylococcus aureus; experiment: Antimicrobial activity against Staphylococcus aureus ATCC 25923 after 18 hrs by twofold dilution technique; assay type: functional; settings: ATCC 25923, 18 h
[30] = test system: Staphylococcus aureus; experiment: Antimicrobial activity against Methicillin susceptible Staphylococcus aureus 239/7 by twofold dilution technique; assay type: functional
[31] = test system: Staphylococcus aureus; experiment: Antimicrobial activity against Staphylococcus aureus ATCC 29213 after 18 hrs by twofold dilution technique; assay type: functional; settings: ATCC 29213, 18 h
[32] = test system: Bacillus cereus; experiment: Antimicrobial activity against Bacillus cereus ATCC 11778 after 18 hrs by twofold dilution technique; assay type: functional; settings: ATCC 11778, 18 h
[33] = test system: Bacillus cereus; experiment: Antimicrobial activity against Bacillus cereus ATCC 11778 at 5 ug after 18 hrs by disk diffusion method; assay type: functional; settings: ATCC 11778, 18 h, read-out: DIZ
[34] = test system: Staphylococcus aureus; experiment: microbe, parasite or virus in culture; settings: ATCC 29213, 18 h, read-out: DIZ
Description: Antimicrobial activity against Staphylococcus aureus ATCC 29213 at 5 ug after 18 hrs by disk diffusion method

[35] = test system: Staphylococcus aureus; experiment: Antimicrobial activity against Methicillin susceptible Staphylococcus aureus 213/7 by twofold dilution technique; assay type: functional
[36] = test system: Staphylococcus aureus; experiment: microbe, parasite or virus in culture; settings: NCTC 4163, 18 h, read-out: DIZ
Description: Antimicrobial activity against Staphylococcus aureus NCTC 4163 at 5 ug after 18 hrs by disk diffusion method

[37] = test system: Staphylococcus aureus; experiment: Antimicrobial activity against Methicillin susceptible Staphylococcus aureus 238/7 by twofold dilution technique; assay type: functional
[38] = test system: Micrococcus luteus; experiment: Antimicrobial activity against Micrococcus luteus ATCC 9341 after 18 hrs by twofold dilution technique; assay type: functional; settings: ATCC 9341, 18 h
[39] = test system: Staphylococcus aureus; experiment: Antimicrobial activity against Methicillin susceptible Staphylococcus aureus 212/7 by twofold dilution technique; assay type: functional
[40] = test system: Staphylococcus aureus; experiment: Antimicrobial activity against methicillin-resistant Staphylococcus aureus 218/7 by twofold dilution technique; assay type: functional

O=C(O)c1cn(C2CC2)c2cc(N3CCNCC3)c(F)cc2c1=O [CIPROFLOXACIN]
MIC [1]: > 8 µg/mL
MIC [2]: > 8 µg/mL
zone of inhibition at 5 µg/disc [3]: 28 mm
zone of inhibition at 5 µg/disc [4]: 30 mm
MIC [5]: > 8 µg/mL
MIC [6]: 4 µg/mL (≈ 12.1 µM)
MIC [7]: 2 µg/mL (≈ 6.04 µM)
MIC [8]: 0.5 µg/mL (≈ 1.51 µM)
MIC [9]: 0.5 µg/mL (≈ 1.51 µM)
MIC [10]: 0.5 µg/mL (≈ 1.51 µM)
MIC [11]: 0.5 µg/mL (≈ 1.51 µM)
MIC [12]: > 8 µg/mL
MIC [13]: 0.5 µg/mL (≈ 1.51 µM)
zone of inhibition at 5 µg/disc [14]: 24 mm
zone of inhibition at 5 µg/disc [15]: 26 mm
MIC [16]: > 8 µg/mL
zone of inhibition at 5 µg/disc [17]: 40 mm
MIC [18]: > 8 µg/mL
MIC [19]: 4 µg/mL (≈ 12.1 µM)
MIC [20]: > 8 µg/mL
MIC [21]: < 0.125 µg/mL
MIC [22]: 1 µg/mL (≈ 3.02 µM)
MIC [23]: 0.5 µg/mL (≈ 1.51 µM)
MIC [24]: 2 µg/mL (≈ 6.04 µM)
MIC [25]: 0.5 µg/mL (≈ 1.51 µM)
MIC [26]: > 8 µg/mL
zone of inhibition at 5 µg/disc [27]: 22 mm
diameter of the inhibition zone (DIZ) [28]: inactive
MIC [29]: 0.5 µg/mL (≈ 1.51 µM)
MIC [30]: 0.5 µg/mL (≈ 1.51 µM)
MIC [31]: 0.5 µg/mL (≈ 1.51 µM)
MIC [32]: 1 µg/mL (≈ 3.02 µM)
zone of inhibition at 5 µg/disc [33]: 20 mm
zone of inhibition at 5 µg/disc [34]: 22 mm
MIC [35]: 0.5 µg/mL (≈ 1.51 µM)
zone of inhibition at 5 µg/disc [36]: 26 mm
MIC [37]: 0.5 µg/mL (≈ 1.51 µM)
MIC [38]: 0.5 µg/mL (≈ 1.51 µM)
MIC [39]: 0.5 µg/mL (≈ 1.51 µM)
MIC [40]: 4 µg/mL (≈ 12.1 µM)
